Settings: 1.0% DMSO, 24-hour incubation at ambient temperature, maximum theoretical 100 μM; for pH 2 solubility: 0.1N HCl, first value of the cell; for pH 7 solubility: 1×PBS buffer (pH 7.4), second value of the cell

C[C@@H](CNC(=O)N(c1nn(CC(F)(F)F)c2c(-c3ccc(C#CC(C)(C)S(C)(=O)=O)nc3[C@H](Cc3cc(F)cc(F)c3)NC(=O)Cn3nc(C(F)(F)F)c4c3C(F)(F)[C@@H]3C[C@H]43)ccc(Cl)c12)S(C)(=O)=O)OP(=O)(O)O [Compound 35, (S)-1-(3-(4-chloro-7-(2-((S)-1-(2-((3bS,4aR)-5,5-difluoro-3-(trifluoromethyl)-3b,4,4a,5-tetrahydro-1H-cyclopropa[3,4]cyclopenta[1,2-c]pyrazol-1-yl)acetamido)-2-(3,5-difluorophenyl)ethyl)-6-(3-methyl-3-(methylsulfonyl)but-1-yn-1-yl)pyridin-3-yl)-1-(2,2,2-trifluoroethyl)-1H-indazol-3-yl)-3-(methylsulfonyl)ureido)propan-2-yl dihydrogen phosphate]
pH 2 solubility: 1 μM | pH 7 solubility: 14 μM

CC(C)(C#Cc1ccc(-c2ccc(Cl)c3c(N(C(=O)NC(CO)CO)S(C)(=O)=O)nn(CC(F)(F)F)c23)c([C@H](Cc2cc(F)cc(F)c2)NC(=O)Cn2nc(C(F)(F)F)c3c2C(F)(F)[C@@H]2C[C@H]32)n1)S(C)(=O)=O [Compound 36, N—((S)-1-(3-(4-chloro-3-(N-((1,3-dihydroxypropan-2-yl)carbamoyl)methylsulfonamido)-1-(2,2,2-trifluoroethyl)-1H-indazol-7-yl)-6-(3-methyl-3-(methylsulfonyl)but-1-yn-1-yl)pyridin-2-yl)-2-(3,5-difluorophenyl)ethyl)-2-((3bS,4aR)-5,5-difluoro-3-(trifluoromethyl)-3b,4,4a,5-tetrahydro-1H-cyclopropa[3,4]cyclopenta[1,2-c]pyrazol-1-yl)acetamide]
pH 2 solubility: 1 μM | pH 7 solubility: 5 μM

CC(C)(C#Cc1ccc(-c2ccc(Cl)c3c(N(C(=O)NC(COC(=O)C(=O)O)COC(=O)C(=O)O)S(C)(=O)=O)nn(CC(F)(F)F)c23)c([C@H](Cc2cc(F)cc(F)c2)NC(=O)Cn2nc(C(F)(F)F)c3c2C(F)(F)[C@@H]2C[C@H]32)n1)S(C)(=O)=O [Compound 37, 2,2′-((2-(3-(4-chloro-7-(2-((S)-1-(2-((3bS,4aR)-5,5-difluoro-3-(trifluoromethyl)-3b,4,4a,5-tetrahydro-1H-cyclopropa[3,4]cyclopenta[1,2-c]pyrazol-1-yl)acetamido)-2-(3,5-difluorophenyl)ethyl)-6-(3-methyl-3-(methylsulfonyl)but-1-yn-1-yl)pyridin-3-yl)-1-(2,2,2-trifluoroethyl)-1H-indazol-3-yl)-3-(methylsulfonyl)ureido)propane-1,3-diyl)bis(oxy))bis(2-oxoacetic acid)]
pH 2 solubility: 3 μM | pH 7 solubility: 18 μM

CC(C)(C#Cc1ccc(-c2ccc(Cl)c3c(N(C(=O)NC(COP(=O)(O)O)COP(=O)(O)O)S(C)(=O)=O)nn(CC(F)(F)F)c23)c([C@H](Cc2cc(F)cc(F)c2)NC(=O)Cn2nc(C(F)(F)F)c3c2C(F)(F)[C@@H]2C[C@H]32)n1)S(C)(=O)=O [Compound 38, 2-(3-(4-chloro-7-(2-((S)-1-(2-((3bS,4aR)-5,5-difluoro-3-(trifluoromethyl)-3b,4,4a,5-tetrahydro-1H-cyclopropa[3,4]cyclopenta[1,2-c]pyrazol-1-yl)acetamido)-2-(3,5-difluorophenyl)ethyl)-6-(3-methyl-3-(methylsulfonyl)but-1-yn-1-yl)pyridin-3-yl)-1-(2,2,2-trifluoroethyl)-1H-indazol-3-yl)-3-(methylsulfonyl)ureido)propane-1,3-diyl bis(dihydrogen phosphate)]
pH 2 solubility: 10 μM | pH 7 solubility: 16 μM

CC(C)(CO)NC(=O)N(c1nn(CC(F)(F)F)c2c(-c3ccc(C#CC(C)(C)S(C)(=O)=O)nc3[C@H](Cc3cc(F)cc(F)c3)NC(=O)Cn3nc(C(F)(F)F)c4c3C(F)(F)[C@@H]3C[C@H]43)ccc(Cl)c12)S(C)(=O)=O [Compound 39, N—((S)-1-(3-(4-chloro-3-(N-((1-hydroxy-2-methylpropan-2-yl)carbamoyl)methylsulfonamido)-1-(2,2,2-trifluoroethyl)-1H-indazol-7-yl)-6-(3-methyl-3-(methylsulfonyl)but-1-yn-1-yl)pyridin-2-yl)-2-(3,5-difluorophenyl)ethyl)-2-((3bS,4aR)-5,5-difluoro-3-(trifluoromethyl)-3b,4,4a,5-tetrahydro-1H-cyclopropa[3,4]cyclopenta[1,2-c]pyrazol-1-yl)acetamide]
pH 2 solubility: 1 μM | pH 7 solubility: 2 μM

CC(C)(C#Cc1ccc(-c2ccc(Cl)c3c(N(C(=O)NCCO)S(C)(=O)=O)nn(CC(F)(F)F)c23)c([C@H](Cc2cc(F)cc(F)c2)NC(=O)Cn2nc(C(F)(F)F)c3c2C(F)(F)[C@@H]2C[C@H]32)n1)S(C)(=O)=O [Compound 40, N—((S)-1-(3-(4-chloro-3-(N-((2-hydroxyethyl)carbamoyl)methylsulfonamido)-1-(2,2,2-trifluoroethyl)-1H-indazol-7-yl)-6-(3-methyl-3-(methylsulfonyl)but-1-yn-1-yl)pyridin-2-yl)-2-(3,5-difluorophenyl)ethyl)-2-((3bS,4aR)-5,5-difluoro-3-(trifluoromethyl)-3b,4,4a,5-tetrahydro-1H-cyclopropa[3,4]cyclopenta[1,2-c]pyrazol-1-yl)acetamide]
pH 2 solubility: 1 μM | pH 7 solubility: 2 μM

CC(C)(C#Cc1ccc(-c2ccc(Cl)c3c(N(C(=O)NCCOP(=O)(O)O)S(C)(=O)=O)nn(CC(F)(F)F)c23)c([C@H](Cc2cc(F)cc(F)c2)NC(=O)Cn2nc(C(F)(F)F)c3c2C(F)(F)[C@@H]2C[C@H]32)n1)S(C)(=O)=O [Compound 41, 2-(3-(4-chloro-7-(2-((S)-1-(2-((3bS,4aR)-5,5-difluoro-3-(trifluoromethyl)-3b,4,4a,5-tetrahydro-1H-cyclopropa[3,4]cyclopenta[1,2-c]pyrazol-1-yl)acetamido)-2-(3,5-difluorophenyl)ethyl)-6-(3-methyl-3-(methylsulfonyl)but-1-yn-1-yl)pyridin-3-yl)-1-(2,2,2-trifluoroethyl)-1H-indazol-3-yl)-3-(methylsulfonyl)ureido)ethyl dihydrogen phosphate]
pH 2 solubility: 3 μM | pH 7 solubility: 17 μM

CC(C)(C#Cc1ccc(-c2ccc(Cl)c3c(N(C(=O)NCCN4CCOCC4)S(C)(=O)=O)nn(CC(F)(F)F)c23)c([C@H](Cc2cc(F)cc(F)c2)NC(=O)Cn2nc(C(F)(F)F)c3c2C(F)(F)[C@@H]2C[C@H]32)n1)S(C)(=O)=O [Compound 42, N—((S)-1-(3-(4-chloro-3-(N-((2-morpholinoethyl)carbamoyl)methylsulfonamido)-1-(2,2,2-trifluoroethyl)-1H-indazol-7-yl)-6-(3-methyl-3-(methylsulfonyl)but-1-yn-1-yl)pyridin-2-yl)-2-(3,5-difluorophenyl)ethyl)-2-((3bS,4aR)-5,5-difluoro-3-(trifluoromethyl)-3b,4,4a,5-tetrahydro-1H-cyclopropa[3,4]cyclopenta[1,2-c]pyrazol-1-yl)acetamide]
pH 2 solubility: 62 μM | pH 7 solubility: 5 μM
